Marks after values point to notes of the source that are not given here. No end group written: not given here.
Columns and labels:
Assay type in all cases: in vivo, BALB/c mice
NK cell = NK cell cytotoxicity activity test (YAC-1 target cells, MTT) on spleen cells of treated mice; details: IFN-γ and IL-2 groups 3×10^5 IU/kg/day, X ± SD
Summary of the method: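 Mice (ten per group) dosed i.p. once daily for 15 days in 0.5 ml saline; spleens taken the next day, erythrocytes lysed with Tris-NH4Cl. Spleen cells (4×10^6/ml) mixed with YAC-1 targets (1×10^5/ml) in triplicate per mouse. Viability by MTT, 4 h at 37° C., OD570nm referenced at 630 nm.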

anti-SRBC antibody = assay: Sheep Red Blood Cell (SRBC) hemolysis test, anti-SRBC antibody formation; details: SRBC on day 12, IFN-γ and IL-2 groups 3×10^5 IU/kg/day, X ± SD
Summary of the method: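 Hemolytic antibody read-out: day-16 mouse serum (1:500) incubated 10 min at 37 °C with 2% SRBC and Cavy-serum complement, supernatant treated with Drabkin solution, OD540nm measured. Animals were SRBC-immunized i.p. (0.2 ml) on day 12 during dosing.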

mononuclear phagocyte = assay: carbon particle clearance test, phagocytotic activity of mononuclear phagocyte; set-up: key: α = (cube root of K)×(body weight ÷ liver+spleen weight); details: IFN-γ and IL-2 groups 3×10^5 IU/kg/day, X ± SD
Summary of the method: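 Mice received India ink (0.1 ml/kg i.v., 5-fold diluted) on day 16, one day after last dosing; blood at 1 and 5 min was lysed in 0.1% Na2CO3 and read at OD680. Clearance index K from log OD decline; phagocytic index α = ∛K × body weight/(liver+spleen weight); thymus and spleen indices as % body weight.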

[1] = immunity organ weight test (thymus gland index, spleen index); details: X ± SD
Summary of the method: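 Organs (thymus, spleen, liver) were weighed one day after the last of 15 daily i.p. doses given in saline. Indices are expressed as percentage of body weight, with α derived from body weight relative to combined liver and spleen weight.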

[2] = peptide 50 μg/kg/day i.p. 15 days
[3] = peptide 0.5 μg/kg/day i.p. 15 days
[4] = peptide 5 μg/kg/day i.p. 15 days
[5] = peptide 500 μg/kg/day i.p. 15 days
[6] = peptide 5 μg/kg/day i.p. 15 days, IFN-γ and IL-2 groups 3×10^5 IU/kg/day
[7] = peptide 50 μg/kg/day i.p. 15 days, IFN-γ and IL-2 groups 3×10^5 IU/kg/day
[8] = peptide 500 μg/kg/day i.p. 15 days, IFN-γ and IL-2 groups 3×10^5 IU/kg/day
[9] = peptide 0.5 μg/kg/day i.p. 15 days, IFN-γ and IL-2 groups 3×10^5 IU/kg/day

Substance | NK cell cytotoxic activity (NK cell activity index) (NK cell; [2]) | anti-SRBC antibody formation (sample serum index) (anti-SRBC antibody; [3]) | anti-SRBC antibody formation (sample serum index) (anti-SRBC antibody; [4]) | anti-SRBC antibody formation (sample serum index) (anti-SRBC antibody; [2]) | anti-SRBC antibody formation (sample serum index) (anti-SRBC antibody; [5]) | phagocytotic index (mononuclear phagocyte; [4]) | phagocytotic index (mononuclear phagocyte; [5]) | weight of spleen (spleen index) [1, 5] | NK cell cytotoxic activity (NK cell activity index) (NK cell; [5]) | weight of thymus gland (thymus gland index) [1, 6] | weight of thymus gland (thymus gland index) [1, 7] | weight of thymus gland (thymus gland index) [1, 8] | NK cell cytotoxic activity (NK cell activity index) (NK cell; [3]) | NK cell cytotoxic activity (NK cell activity index) (NK cell; [4]) | weight of thymus gland (thymus gland index) [1, 9] | weight of spleen (spleen index) [1, 7] | weight of spleen (spleen index) [1, 4] | weight of spleen (spleen index) [1, 9] | phagocytotic index (mononuclear phagocyte; [3]) | phagocytotic index (mononuclear phagocyte; [2])
FNFVPP [CMS003] | 85 ± 6 % | 2 ± 1* Unit | 91 ± 24*^@ Unit | 52 ± 11* Unit | 96 ± 18*^@ Unit | 6.9 ± 0.9*^ | 6.6 ± 0.7 | 0.40 ± 0.04 % |  |  |  |  |  |  |  |  |  |  |  | 
IGMESAGIHETTY [CMS016] |  |  | 93 ± 32*^@ Unit |  | 143 ± 38*^@^ Unit | 6.9 ± 0.8*^ |  |  | 91 ± 7*^@^ % | 0.22 ± 0.06 % | 0.20 ± 0.03*^@^ % | 0.18 ± 0.05 % |  |  |  |  |  |  |  | 
KAVGHLDDLPGAL [CMS008] |  |  | 97 ± 26*^@ Unit |  | 82 ± 15*^@ Unit | 6.4 ± 0.5 | 6.5 ± 1.2 |  |  |  | 0.20 ± 0.04*^@^ % | 0.21 ± 0.03*^@^ % | 46 ± 12 % | 92 ± 4*^@^ % | 0.22 ± 0.07*^ % | 0.39 ± 0.08 % |  |  |  | 
LRVAPEEHPTL [CMS009] |  | 2 ± 1* Unit | 79 ± 18*^@ Unit | 13 ± 5* Unit | 113 ± 22*^@^ Unit | 6.9 ± 0.9*^ |  | 0.41 ± 0.03 % |  |  |  |  |  | 92 ± 6*^@^ % |  |  |  |  |  | 
PSIVGRPRHQGVM [CMS015] | 78 ± 8 % | 13 ± 4* Unit | 94 ± 37*^@ Unit | 54 ± 9*^@ Unit | 136 ± 22*^@^ Unit |  |  | 0.36 ± 0.07 % |  | 0.20 ± 0.08 % |  |  |  |  |  |  | 0.38 ± 0.15 % |  |  | 
PTTKTYFPHF [CMS001] | 85 ± 10 % |  | 110 ± 24*^@ Unit |  |  |  |  | 0.43 ± 0.07 % |  | 0.22 ± 0.05 % |  |  |  |  |  |  |  | 0.40 ± 0.05 % |  | 
Phe Glu Glu Glu (FEEE; listed as Sus scrofa) [CMS032] |  |  | 157 ± 37*^@^ Unit | 131 ± 24*^@^ Unit |  |  |  |  | 87 ± 5 % | 0.29 ± 0.04*^@^ % | 0.27 ± 0.03*^@^ % | 0.25 ± 0.03*^@^ % |  |  | 0.21 ± 0.06 % |  |  |  |  | 
Phe Val Asn Asp (FVND; listed as Sus scrofa) [CMS035] | 72 ± 9 % |  | 176 ± 39*^@^ Unit | 97 ± 10*^@^ Unit | 88 ± 16*^@ Unit | 6.9 ± 0.9*^ |  |  | 90 ± 10 % | 0.21 ± 0.04 % |  |  | 76 ± 10 % |  |  |  |  |  |  | 
Pro Glu Asn Phe (PENF; listed as Sus scrofa) [CMS034] |  | 20 ± 2* Unit | 172 ± 37*^@^ Unit | 136 ± 11*^@^ Unit |  |  |  |  |  | 0.27 ± 0.06*^@^ % | 0.19 ± 0.04*^ % | 0.20 ± 0.05*^ % |  | 90 ± 5 % |  |  |  |  |  | 
RVAPEEHPTL [CMS011] |  | 5 ± 3* Unit | 115 ± 27*^@^ Unit | 67 ± 9*^@ Unit | 188 ± 16*^@^ Unit | 6.4 ± 1.1 |  | 0.41 ± 0.04 % |  | 0.22 ± 0.04 % |  |  | 79 ± 3 % | 76 ± 10 % |  |  |  |  |  | 
Tyr Ser Leu (YSL; listed as Sus scrofa) [CMS024] |  | 98 ± 6*^@^ Unit | 171 ± 39*^@^ Unit |  | 75 ± 29*^@ Unit |  | 6.4 ± 1.0 | 0.34 ± 0.05 % | 89 ± 8 % | 0.23 ± 0.06*^ % | 0.27 ± 0.02*^@^ % |  |  | 78 ± 3 % |  |  |  |  | 6.7 ± 0.5*^ | 6.6 ± 0.7
VAPEEHPTLLTEAPLNPK [CMS010] |  | 10 ± 3* Unit |  |  | 112 ± 30*^@^ Unit | 7.1 ± 0.7*^ |  |  | 91 ± 4*^@^ % | 0.27 ± 0.05*^@^ % |  | 0.19 ± 0.04 % |  | 82 ± 9 % | 0.21 ± 0.03 % | 0.38 ± 0.05 % |  |  |  | 
VGMGQKDSY [CMS019] |  | 12 ± 3* Unit | 118 ± 20*^@^ Unit |  | 91 ± 26*^@ Unit | 6.8 ± 0.6*^ |  | 0.63 ± 0.08 % |  | 0.24 ± 0.02*^@^ % | 0.20 ± 0.03*^@^ % | 0.19 ± 0.02 % |  |  |  |  |  |  |  | 6.7 ± 0.9*^
